As usually defined, the IC50 is the concentration needed to halve the response being measured.

Like-named read-outs stand apart in the source and are kept apart here.

Series [1] addresses AmCA (Apis mellifera spermatheca carbonic anhydrase). The conditions noted are these: AmCA inhibition data from previous study; cited from earlier work.
The target is the same in series [2]. The series is described as follows: AmCA inhibition, colorimetric CO2 hydrase assay. In kind it is biochemical. Conditions: AmCA from honey bee spermatheca, triplicate, enzyme concentration 8.9 nM. As to the method: Bee spermatheca samples were washed three times with 50 mM Tris/Sulphate (pH 7.8). Spermatecha samples taken from 200 bees were combined and homogenised with liquid nitrogen, then placed in the same buffer and centrifuged at 4 °C, 15,000 g for 30 min. The precipitate portion was discarded and the supernatant portion was separated and used in subsequent studies.
The enzyme was purified using Sepharose-4B-sulfanilamide affinity gel prepared by our group. Aniline was used as a spacer arm in the chromatography column. The column was then equilibrated with 25 mM Tris-HCl/0.1M Na2SO4 (pH 8.7) and the gel was washed with 25 mM Tris-HCl/22 mM Na2SO4 (pH 8.7). Finally, elution was performed with 1 M NaCl/25 mM Na2HPO4 (pH 6.3). The temperature was kept at 4 °C during all experiments.
The effects of methomyl, oxamyl, deltamethrin, dichlorodiphenyltrichloroethane ([…]), cypermethrin and diazinon on AmCA activities were assayed colorimetrically using the CO2 hydrase assay, in triplicate at each concentration of inhibitor (ranging from 1 nM to 10 mM). Control enzyme activity was taken as 100%. An activity % versus inhibitor graph was drawn for all pesticides (Microsoft Office 2000, Excel). Pesticide concentrations that caused 50% inhibition (IC50) of the enzyme activity were thus obtained graphically using a regression software. The enzyme concentration in the assay system was 8.9 nM.

The subject of series [3] is honey bees and bumblebees. The conditions noted are these: cited from earlier work.
For series [4], the system named is honey bees and bumblebees. The conditions noted are these: cited from earlier work. This is another data set of the same source.

For the compound `CCNc1nc(Cl)nc(NC(C)C)n1` [Atrazine, atrazine], the half-inhibitory concentration (IC50) in series [1] was 16.5 nM. Consider `CCOP(=S)(OCC)Oc1cc(C)nc(C(C)C)n1` [Diazinon, diazinon], for which, in series [2], 38.5 ± 1.2 nM corresponded to half-maximal inhibition (IC50). The “topical lethal dose (LD50)” value in series [3] was 0.38 μg/bee. Besides, the “oral dose rates (oral LD50)” value in series [4] is reported as 0.21 μg/bee. Compound `CC1(C)[C@H](C(=O)O[C@H](C#N)c2cccc(Oc3ccccc3)c2)[C@@H]1C=C(Br)Br` [Deltamethrin, deltamethrin] had a half-inhibitory concentration (IC50) in series [2] of 2.8 ± 0.1 nM. For the same compound, in series [3], the “topical lethal dose (LD50)” value is on record as 0.02 μg/bee. In series [2], `CNC(=O)O/N=C(\SC)C(=O)N(C)C` [Oxamyl, oxamyl] returned a half-inhibitory concentration (IC50) of 2.5 ± 0.1 nM.

Turning to `CC1(C)C(C=C(Cl)Cl)C1C(=O)OC(C#N)c1cccc(Oc2ccccc2)c1` (stereo not drawn) [Cypermethrin, cypermethrin], in series [2], inhibition was half-maximal at 7.8 ± 0.3 nM (IC50). The “topical lethal dose (LD50)” value in series [3] is 0.03 μg/bee. Further, the “oral dose rates (oral LD50)” value in series [4] is listed as 0.06 μg/bee.

With `CNC(=O)Oc1cccc2ccccc12` [Carbaryl, carbaryl], in series [1], the IC50 is 3.1 nM. Turning to `CC(C)(C)C(O)(CCc1ccc(Cl)cc1)Cn1cncn1` (stereo not drawn) [Tebuconazole, tebuconazole], the IC50 in series [1] is 3 nM. Turning to `CNC(=O)ON=C(C)SC` [Methomyl, methomyl], the IC50 in series [2] is 2.3 ± 0.1 nM. Further, in series [3], the “topical lethal dose (LD50)” value was 0.49 μg/bee. Moreover, the “oral dose rates (oral LD50)” value in series [4] is 3.38 μg/bee. On to `CNC(=O)Oc1cccc2c1OC(C)(C)C2` [Carbonfuran, carbofuran], for which the half-maximal inhibitory concentration (IC50) in series [1] is 8.7 nM. On to `CCNc1nc(Cl)nc(NCC)n1` [Simazin, simazine], for which the half-maximal inhibitory concentration (IC50) in series [1] was 27.3 nM. For the compound `CNC(=O)Oc1ccccc1OC(C)C` [Propoxur, propoxur], the IC50 in series [1] is 32.1 nM.

The values are drawn from paper PMC7594722, “Investigation of pesticides on honey bee carbonic anhydrase inhibition” (Journal of Enzyme Inhibition and Medicinal Chemistry, 2020).
